# Data: patent US6376497B1, “Antifungal azole derivatives having a fluorinated vinyl group and process for preparing same” (Korea Research Institute of Chemical Technology, priority 1999, dated 2002)
# How the values were obtained:
# Test in all cases: In vitro antifungal activity, microbroth dilution MIC
# Assay type in all cases: cell-based
# [1] = test system: Aspergillus furnigatus B. 19119; settings: for Minimal inhibitory concentration(MIC), A furnigatus B. 19119: RPMI-1640, 35° C., no growth observed; for Minimal inhibitory concentration (MIC): A furnigatus B. 19119, RPMI-1640, 35° C., 4 to 48 hours
# Outline: (§1)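 Broth microdilution adapted from NCCLS M27, in RPMI-1640 with 0.165 M MOPS, pH 7.0. Yeast or mould inoculum at 2×10^3 CFU/ml was mixed 1:1 with DMSO-derived compound solutions (200 to 0.10 μg/ml before mixing) and incubated at 35 °C for 4 to 48 h. MIC was the concentration showing no growth.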
# [2] = test system: Aspergillus niger A. 16404; settings: for Minimal inhibitory concentration(MIC), A. niger A. 16404: RPMI-1640, 35° C., no growth observed; for Minimal inhibitory concentration (MIC): A. niger A. 16404, RPMI-1640, 35° C., 4 to 48 hours
# Outline: as §1
# [3] = test system: Candida albicans A. 10231; settings: 4 to 48 hours; for Minimal inhibitory concentration(MIC), C. albicans A. 10231: RPMI-1640, 35° C., no growth observed; for Minimal inhibitory concentration (MIC): C. albicans A. 10231, RPMI-1640, 35° C.
# Outline: as §1
# Candida albicans C1-2 = settings: 4 to 48 hours; for Minimal inhibitory concentration(MIC), C. albicans C1-2: RPMI-1640, 35° C., no growth observed; for Minimal inhibitory concentration (MIC): C. albicans C1-2, RPMI-1640, 35° C.
# Outline: as §1
# [4] = test system: Candida albicans IFO. 1385; settings: 4 to 48 hours; for Minimal inhibitory concentration(MIC), C. albicans IFO. 1385: RPMI-1640, 35° C., no growth observed; for Minimal inhibitory concentration (MIC): C. albicans IFO. 1385, RPMI-1640, 35° C.
# Outline: as §1
# Candida krusei K. 11655 = settings: 4 to 48 hours; for Minimal inhibitory concentration(MIC), C. krusei K. 11655: RPMI-1640, 35° C., no growth observed; for Minimal inhibitory concentration (MIC): C. krusei K. 11655, RPMI-1640, 35° C.
# Outline: as §1
# [5] = test system: Candida parapsitosis A. 7330; settings: 4 to 48 hours; for Minimal inhibitory concentration(MIC), C. parapsitosis A. 7330: RPMI-1640, 35° C., no growth observed; for Minimal inhibitory concentration (MIC): C. parapsitosis A. 7330, RPMI-1640, 35° C.
# Outline: as §1
# [6] = test system: Candida pseudotropicalis K. 11658; settings: 4 to 48 hours; for Minimal inhibitory concentration(MIC), C. pseudotropicalis K. 11658: RPMI-1640, 35° C., no growth observed; for Minimal inhibitory concentration (MIC): C. pseudotropicalis K. 11658, RPMI-1640, 35° C.
# Outline: as §1
# [7] = test system: Candida tropicalis A. 13803; settings: 4 to 48 hours; for Minimal inhibitory concentration(MIC), C. tropicalis A. 13803: RPMI-1640, 35° C., no growth observed; for Minimal inhibitory concentration (MIC): C. tropicalis A. 13803, RPMI-1640, 35° C.
# Outline: as §1
# [8] = test system: Cryptococcus neoformans A. 34144; settings: for Minimal inhibitory concentration(MIC), Cry. neoformans A. 34144: RPMI-1640, 35° C., no growth observed; for Minimal inhibitory concentration (MIC): Cry. neoformans A. 34144, RPMI-1640, 35° C., 4 to 48 hours
# Outline: as §1
# [9] = test system: Cryptococcus neoformans B. 42419; settings: 4 to 48 hours; for Minimal inhibitory concentration(MIC), Cry. neoformans B. 42419: RPMI-1640, 35° C., no growth observed; for Minimal inhibitory concentration (MIC): Cry. neoformans B. 42419, RPMI-1640, 35° C.
# Outline: as §1
# [10] = test system: Cryptococcus neoformans IFM. 40092; settings: for Minimal inhibitory concentration(MIC), Cry. neoformans IFM. 40092: RPMI-1640, 35° C., no growth observed; for Minimal inhibitory concentration (MIC): Cry. neoformans IFM. 40092, RPMI-1640, 35° C., 4 to 48 hours
# Outline: as §1
# [11] = test system: Torulopsis glabrata B. 16205; settings: 4 to 48 hours; for Minimal inhibitory concentration(MIC), T. glabrata B. 16205: RPMI-1640, 35° C., no growth observed; for Minimal inhibitory concentration (MIC): T. glabrata B. 16205, RPMI-1640, 35° C.
# Outline: as §1
# [12] = test system: Trichophyton mentagrophytes A. 9129; settings: for Minimal inhibitory concentration(MIC), T. mentagrophytes A. 9129: RPMI-1640, 35° C., no growth observed; for Minimal inhibitory concentration (MIC): T. mentagrophytes A. 9129, RPMI-1640, 35° C., 4 to 48 hours
# Outline: as §1
# [13] = test system: Trichophyton mentagrophytes B. 32663; settings: for Minimal inhibitory concentration(MIC), T. mentagrophytes B. 32663: RPMI-1640, 35° C., no growth observed; for Minimal inhibitory concentration (MIC): T. mentagrophytes B. 32663, RPMI-1640, 35° C., 4 to 48 hours
# Outline: as §1
Structure (SMILES),"Minimal inhibitory concentration(MIC), A furnigatus B. 19119 [1]","Minimal inhibitory concentration(MIC), A. niger A. 16404 [2]","Minimal inhibitory concentration(MIC), C. albicans A. 10231 [3]","Minimal inhibitory concentration(MIC), C. albicans C1-2 (Candida albicans C1-2)","Minimal inhibitory concentration(MIC), C. albicans IFO. 1385 [4]",Minimal inhibitory concentration (MIC) [1],Minimal inhibitory concentration (MIC) [2],Minimal inhibitory concentration (MIC) [3],Minimal inhibitory concentration (MIC) (Candida albicans C1-2),Minimal inhibitory concentration (MIC) [4],Minimal inhibitory concentration (MIC) (Candida krusei K. 11655),Minimal inhibitory concentration (MIC) [5],Minimal inhibitory concentration (MIC) [6],Minimal inhibitory concentration (MIC) [7],Minimal inhibitory concentration (MIC) [8],Minimal inhibitory concentration (MIC) [9],Minimal inhibitory concentration (MIC) [10],Minimal inhibitory concentration (MIC) [11],Minimal inhibitory concentration (MIC) [12],Minimal inhibitory concentration (MIC) [13],other results
FC(=C(c1ccc(F)cc1)C(F)(F)F)N1CCN(c2ccc(OCC3COC(Cn4ccnc4)(c4ccc(F)cc4F)O3)cc2)CC1 (mixture of isomers) [Ex. 148],6.25 µg/mL,100 µg/mL,>100 µg/mL,>100 µg/mL,0.39 µg/mL,–,–,–,–,–,–,–,–,–,–,–,–,–,–,–,"Minimal inhibitory concentration(MIC), C. krusei K. 11655 (Candida krusei K. 11655): 0.39 µg/mL; Minimal inhibitory concentration(MIC), C. parapsitosis A. 7330 [5]: 0.78 µg/mL; Minimal inhibitory concentration(MIC), C. pseudotropicalis K. 11658 [6]: 0.78 µg/mL; Minimal inhibitory concentration(MIC), C. tropicalis A. 13803 [7]: >100 µg/mL; Minimal inhibitory concentration(MIC), Cry. neoformans A. 34144 [8]: 0.78 µg/mL; Minimal inhibitory concentration(MIC), Cry. neoformans B. 42419 [9]: 0.78 µg/mL; Minimal inhibitory concentration(MIC), Cry. neoformans IFM. 40092 [10]: ≦0.10 μg/ml; Minimal inhibitory concentration(MIC), T. glabrata B. 16205 [11]: 50.0 µg/mL; Minimal inhibitory concentration(MIC), T. mentagrophytes A. 9129 [12]: 3.13 µg/mL; Minimal inhibitory concentration(MIC), T. mentagrophytes B. 32663 [13]: ≦0.10 μg/ml"
FC(=C(c1ccc(Cl)cc1)C(F)(F)F)N1CCN(c2ccc(OCC3COC(Cn4ccnc4)(c4ccc(F)cc4F)O3)cc2)CC1 (mixture of isomers) [Ex. 149],6.25 µg/mL,100 µg/mL,>100 µg/mL,>100 µg/mL,0.39 µg/mL,–,–,–,–,–,–,–,–,–,–,–,–,–,–,–,"Minimal inhibitory concentration(MIC), C. krusei K. 11655 (Candida krusei K. 11655): 0.39 µg/mL; Minimal inhibitory concentration(MIC), C. parapsitosis A. 7330 [5]: 0.78 µg/mL; Minimal inhibitory concentration(MIC), C. pseudotropicalis K. 11658 [6]: 0.39 µg/mL; Minimal inhibitory concentration(MIC), C. tropicalis A. 13803 [7]: >100 µg/mL; Minimal inhibitory concentration(MIC), Cry. neoformans A. 34144 [8]: 0.78 µg/mL; Minimal inhibitory concentration(MIC), Cry. neoformans B. 42419 [9]: 0.39 µg/mL; Minimal inhibitory concentration(MIC), Cry. neoformans IFM. 40092 [10]: ≦0.10 μg/ml; Minimal inhibitory concentration(MIC), T. glabrata B. 16205 [11]: 50.0 µg/mL; Minimal inhibitory concentration(MIC), T. mentagrophytes A. 9129 [12]: 3.13 µg/mL; Minimal inhibitory concentration(MIC), T. mentagrophytes B. 32663 [13]: ≦0.10 μg/ml"
FC(=C(c1cc(Cl)cc(Cl)c1)C(F)(F)F)N1CCN(c2ccc(OCC3COC(Cn4ccnc4)(c4ccc(F)cc4F)O3)cc2)CC1 (mixture of isomers) [Ex. 150],12.5 µg/mL,100 µg/mL,>100 µg/mL,>100 µg/mL,0.39 µg/mL,–,–,–,–,–,–,–,–,–,–,–,–,–,–,–,"Minimal inhibitory concentration(MIC), C. krusei K. 11655 (Candida krusei K. 11655): 0.78 µg/mL; Minimal inhibitory concentration(MIC), C. parapsitosis A. 7330 [5]: 1.56 µg/mL; Minimal inhibitory concentration(MIC), C. pseudotropicalis K. 11658 [6]: 0.78 µg/mL; Minimal inhibitory concentration(MIC), C. tropicalis A. 13803 [7]: >100 µg/mL; Minimal inhibitory concentration(MIC), Cry. neoformans A. 34144 [8]: 1.56 µg/mL; Minimal inhibitory concentration(MIC), Cry. neoformans B. 42419 [9]: 0.39 µg/mL; Minimal inhibitory concentration(MIC), Cry. neoformans IFM. 40092 [10]: ≦0.10 μg/ml; Minimal inhibitory concentration(MIC), T. glabrata B. 16205 [11]: 50.0 µg/mL; Minimal inhibitory concentration(MIC), T. mentagrophytes A. 9129 [12]: 3.13 µg/mL; Minimal inhibitory concentration(MIC), T. mentagrophytes B. 32663 [13]: ≦0.10 μg/ml"
"FC(=Cc1ccccc1)OC[C@H]1CO[C@](Cn2ccnc2)(c2ccc(Cl)cc2Cl)O1 (relative stereo) [Example 1, (E&Z) 1-[cis-2-(2,4-dichlorophenyl)-2-(1H-1-imidazolylmethyl)-1,3-dioxolan-4-ylmethoxy]-1-fluoro-2-phenyl-1-ethene]",–,–,–,–,–,1.56 µg/mL,1.56 µg/mL,25.0 µg/mL,25.0 µg/mL,3.13 µg/mL,6.25 µg/mL,6.25 µg/mL,6.25 µg/mL,50.0 µg/mL,0.39 µg/mL,0.39 µg/mL,0.20 µg/mL,25.0 µg/mL,≦0.10 μg/ml,0.20 µg/mL,–
Cc1cccc(C=C(F)OCC2COC(Cn3ccnc3)(c3ccc(Cl)cc3Cl)O2)c1 (stereo not drawn) [Ex. 2],–,–,–,–,–,3.13 µg/mL,3.13 µg/mL,6.25 µg/mL,6.25 µg/mL,0.78 µg/mL,12.5 µg/mL,12.5 µg/mL,12.5 µg/mL,25.0 µg/mL,3.13 µg/mL,3.13 µg/mL,1.56 µg/mL,6.25 µg/mL,1.56 µg/mL,1.56 µg/mL,–
Cc1ccc(C=C(F)OCC2COC(Cn3ccnc3)(c3ccc(Cl)cc3Cl)O2)cc1 (stereo not drawn) [Ex. 3],–,–,–,–,–,3.13 µg/mL,3.13 µg/mL,12.5 µg/mL,25.0 µg/mL,0.78 µg/mL,6.25 µg/mL,6.25 µg/mL,6.25 µg/mL,25.0 µg/mL,0.39 µg/mL,3.13 µg/mL,1.56 µg/mL,3.13 µg/mL,1.56 µg/mL,1.56 µg/mL,–
CCc1ccc(C=C(F)OCC2COC(Cn3ccnc3)(c3ccc(Cl)cc3Cl)O2)cc1 (stereo not drawn) [Ex. 4],–,–,–,–,–,6.25 µg/mL,6.25 µg/mL,12.5 µg/mL,6.25 µg/mL,1.56 µg/mL,6.25 µg/mL,12.5 µg/mL,6.25 µg/mL,12.5 µg/mL,3.13 µg/mL,3.13 µg/mL,1.56 µg/mL,6.25 µg/mL,3.13 µg/mL,1.56 µg/mL,–
